Source: patent EP0799614A1, “REMEDY FOR ISCHEMIC DISEASES” (CHUGAI SEIYAKU KABUSHIKI KAISHA, priority 1994, dated 1996)
Where two headings read alike, the source gives them in different places.

Key:
thoracic aorta = assay: Vasorelaxing action in vitro: relaxation of 30 mM K+ contraction of aortic rings; type: cell-based, Sprague-Dawley (Crj) male rat; details: contraction at 30 mM K+ taken as 100%
Method: The thoracic aorta was excised from a Sprague-Dawley (Crj) male rat weighing between 350 and 550 g, and dissected free from surrounding connective tissue. The vessel was cut into a ring having a width of 2 to 3 mm. The resulting preparation was mounted for isometric tension recording in an organ bath filled with 10 ml of a Krebs-Henseleit solution (K-H solution, pH 7.4, 37°C), which was bubbled with 95% 02/5% CO2. Isometric tension changes were monitored with an isometric tranducer (TB-611T, manufactured by Nihon Kohden Corp.). Before starting the experiment, the preparation was given a stretched tension of 2 g and allowed to equilibrate for 30 minutes (the K-H solution was exchanged for a fresh one every 15 minutes). At first, the preparation was precontracted by changing the solution in the bath to one containing 30 mM K^+. After the contraction was maintained for 20 minutes, the preparation was washed with K-H solution. Sixty minutes thereafter (the K-H solution was exchanged with a fresh one every 20 minutes), contraction was again induced in the same manner as described above. […]

[1] = test system: Isolated ventricular myocytes; assay: Inhibitory action on calcium overload in vitro, Method A: veratrine-treated myocytes, survival rate; type: cell-based, male Sprague-Dawley rat; parameters: key: ++: The cells survived almost completely at 10^-7 M.; +: The cells survived almost completely at 10^-6 M.; The cells died almost completely at 10 M^-6 M; details: 30 minutes pretreatment, veratrine 100 µg/ml, observed five minutes later
Method: (§1) Isolated ventricular myocytes were prepared from the heart of male Sprague-Dawley rat weighing 300 to 500 g, using an enzyme-perfusion method. […]

Male Sprague-Dawley rats = assay: Preventive effect on ventricular arrhythmia caused by occlusion and reperfusion of the coronary artery; type: in vivo; details: Fig. 4; 0.5, 1 and 3 mg/kg via femoral vein 10 min before occlusion; compared with diltiazem 1 and 3 mg/kg
Method: Male Sprague-Dawley rats (450 - 600 g) were anethetized with pentobarbital, subjected to thoracotomy under artificial respiration, had the arterior descending branch of the left coronary artery occluded with a silk ligature for 5 min, had the occlusion removed to permit reperfusion and examined for 10 min. A standard limb lead II electrocardiogram was recorded to check for the occurrence of ventricular arrythmia. […] The parethesized numeral at the bottom of each bar in Fig. 4 represents the number of cases.

rabbit LDL = assay: Inhibitory action on lipid peroxidation in vitro, Method A: oxidation of LDL by soybean lipoxygenase, fluorescence of LDL fraction; type: biochemical; details: fluorescence intensity of oxidized LDL fraction, SLO 40 µg/ml, 37°C, 24 hours
Method: A test compound was added to rabbit LDL prepared according to the method of Havel, et al. (Havel RJ et al., J. Clin. Invest., 34, 1345 (1955)), and then a soybean lipoxygenase type-IS (SLO) was added to a final concentration of 40 µg/ml. Oxidation of LDL was carried out at 37°C in a CO2 incubator for 24 hours. The oxidized LDL solution was separated by gel-permeation chromatography, and the fluorescence intensity of the LDL fraction was measured at an excitation wavelength of 360 nm and an emission wavelength of 430 nm.

[2] = test system: Isolated ventricular myocytes; assay: Inhibitory action on calcium overload in vitro, Method B: veratridine-treated myocytes; type: cell-based, male Sprague-Dawley rat; details: veratridine 50 µg/ml, read-out: Concentration at Which Cells Survived Almost Completely
Method: as §1
The efficacy was evaluated in the same manner as in Method A, except for using 50 µg/ml of veratridine in place of veratrine (100 µg/ml).

[3] = test system: Thoracic aorta preparations from rats; assay: Vasorelaxing action in vitro: effect on CaCl2-induced contractions; type: cell-based; details: Fig. 1; CaCl2 0.01 - 10 mM in 60 mM K+ PSS; compared with diltiazem
Method: Thoracic aorta preparations from rats were stabilized in normal physiological salt solution (PSS) for at least 30 min, contracted with 60 mM KCl and, thereafter, relaxed with normal PSS. Twenty minutes later, the preparations were exposed to Ca^2+ -free 60 mM K^+ PSS (containing 0.1 mM EGTA) for 20 min, then to nominally Ca^2+ -free 60 mM K^+ PSS which is free of EGTA for 20 min, followed by cumulative application of CaCl2 (0.01 - 10 mM) to construct a dose-response curve. […] The response was converted to percent contraction, with the contraction caused by 10 mM CaCl2 being taken as 100%. The data in Fig. 1 are expressed by the mean of 5 cases ± standard error.

[4] = test system: coronary preparations from dogs; assay: Antispasmodic action in vitro: 3,4-diaminopyridine-induced rhythmic contractions; type: cell-based; details: Fig. 2; 3,4-DAP 10 mM; compared with diltiazem
Method: Following repeated replacements of PSS in an organ bath at 15-min intervals, the tension on each of the coronary preparations from dogs stabilized at 2 g; then, PSS was replaced by a 30 mM K^+ PSS to contract the preparations. The 30mM K^+ PSS was replaced by normal PSS in an organ bath to relax the preparations, followed by replacements with PSS at 20-min intervals to stabilize the tension for about 1 h, followed by the addition of 3,4-DAP (10 mM) to induce rhythmic contractions. […] The drug concentration allowing for complete suppression of the amplitude of the 3,4-DAP-induced rhythmic contractions may be designated "elimination dose".

Structure (SMILES)	IC50 (thoracic aorta)	IC50 (thoracic aorta; Rattus norvegicus)	Survival Rate of Cells [1]	further results
CC1SC(c2cc(C(C)(C)C)c(O)c(C(C)(C)C)c2)N(CCCN(C)CCOc2ccc3c(c2)OCO3)C1=O (single isomer, unassigned; (+)) [Compound 74, (+)-2,5-Cis-2-[3,5-di-tert-butyl-4-hydroxyphenyl)-3-[3-[N-methyl-N-[2-(3,4-methylenedioxyphenoxy)ethyl]amino]propyl]-5-methyl-1,3-thiazolidin-4-one]	0.141 µM			
COc1ccc(CN(C)CCCN2C(=O)CSC2c2cc(C(C)(C)C)c(O)c(C(C)(C)C)c2)cc1OC (centres unmarked) [Compound 19]		0.11 µM		
CN(CCCN1C(=O)CSC1c1cc(C(C)(C)C)c(O)c(C(C)(C)C)c1)CCOc1ccc2c(c1)OCO2 (centres unmarked) [Compound 26, 2-(3,5-Di-tert-butyl-4-hydroxyphenyl)-3-[3-[N-methyl-N-[2-(3,4-methylenedioxyphenoxy)ethyl]amino]propyl]-1,3-thiazolidin-4-one]	0.037 µM		++	incidence of arrhythmia (Male Sprague-Dawley rats): by far superior effect to diltiazem in decreasing the incidnece of arrhythmia
CN(CCCN1C(=O)C(CCO)SC1c1cc(C(C)(C)C)c(O)c(C(C)(C)C)c1)CCOc1ccc2c(c1)OCO2 (centres unmarked) [Compound 49, 2-(3,5-Di-tert-butyl-4-hydroxyphenyl)-3-[3-[N-methyl-N-[2-(3,4-methylenedioxyphenoxy)ethyl]amino]propyl]-5-(2-hydroxyethyl)-1,3-thiazolidin-4-one]		0.023 µM		
COc1ccc(CCN(C)CCCN2C(=O)CSC2c2cc(C(C)(C)C)c(O)c(C(C)(C)C)c2)cc1OC (centres unmarked) [Compound 20]			+	Percent (%) of Control (rabbit LDL; 5 x 10^-6 M): 0.6%; Percent (%) of Control (rabbit LDL; 5 x 10^-7 M, 0.5 µM): 8.7%
CC(C)c1cc(C2SCC(=O)N2CCCN(C)CCOc2ccc3c(c2)OCO3)cc(C(C)C)c1O (centres unmarked) [Compound 1, 2-(3,5-Diisopropyl-4-hydroxyphenyl)-3-[3-[N-methyl-N-[2-(3,4-methylenedioxyphenoxy)ethyl]amino]propyl]-1,3-thiazolidin-4-one]		0.17 µM		
CC1SC(c2cc(C(C)(C)C)c(O)c(C(C)(C)C)c2)N(CCCN(C)CCOc2ccc3c(c2)OCO3)C1=O (centres unmarked) [Compound 41, 2-(3,5-Di-tert-butyl-4-hydroxyphenyl)-3-[3-[N-methyl-N-[2-(3,4-methylenedioxyphenoxy)ethyl]amino]propyl]-5-methyl-1,3-thiazolidin-4-one]	0.056 µM			Percent (%) of Control (rabbit LDL; 5 x 10^-6 M): 6.2%
CC1SC(c2cc(C(C)(C)C)c(O)c(C(C)(C)C)c2)N(CCCN(C)CCOc2ccc3c(c2)OCO3)C1=O (stereo not drawn) [Compound 73, 2,5-Cis-2-(3,5-di-tert-butyl-4-hydroxyphenyl)-3-[3-[N-methyl-N-[2-(3,4-methylenedioxyphenoxy)ethyl]amino]propyl]-5-methyl-1,3-thiazolidin-4-one]	0.049 µM			minimal effective concentration [2]: 0.32 µM
CC1SC(c2cc(C(C)(C)C)c(O)c(C(C)(C)C)c2)N(CCCN(C)CCOc2ccc3c(c2)OCO3)C1=O (single isomer, unassigned; (-)) [Compound 75, (-)-2,5-Cis-2-[3,5-di-tert-butyl-4-hydroxyphenyl)-3-[3-[N-methyl-N-[2-(3,4-methylenedioxyphenoxy)ethyl]amino]propyl]-5-methyl-1,3-thiazolidin-4-one]	0.022 µM			minimal effective concentration [2]: 0.32 µM
COc1ccc([C@@H]2Sc3ccccc3N(CCN(C)C)C(=O)[C@@H]2OC(C)=O)cc1 [Diltiazem, reference compound]			-	
CN(CCCN1C(=O)CSC1c1cc(C(C)(C)C)c(O)c(C(C)(C)C)c1)CCOc1ccc2c(c1)OCO2 (single isomer, unassigned; (-)) [Compound 71, (-)-2-(3,5-Di-tert-butyl-4-hydroxyphenyl)-3-[3-[N-methyl-N-[2-(3,4-methylenedioxyphenoxy)ethyl]amino]propyl]-1,3-thiazolidin-4-one]	0.027 µM			minimal effective concentration [2]: 0.32 µM; inhibitory action against the contraction caused by CaCl2 [3]: need be applied in a by far smaller amount than diltiazem to exhibit an outstanding inhibitory action; Percent (%) of Control (rabbit LDL; 5 x 10^-6 M, 5 µM): 2.8%; suppression of 3,4-DAP-induced rhythmic contractions [4]: capable of suppressing the 3,4-DAP-induced rhythmic contractions at a lower concentration than diltiazem
CN(CCCN1C(=O)C(OCCO)SC1c1cc(C(C)(C)C)c(O)c(C(C)(C)C)c1)CCOc1ccc2c(c1)OCO2 (centres unmarked) [Compound 55]		0.021 µM		
CCN(CCCN1C(=O)CSC1c1cc(C(C)(C)C)c(O)c(C(C)(C)C)c1)CCOc1ccc2c(c1)OCO2 (centres unmarked) [Compound 12]		0.063 µM	++	Percent (%) of Control (rabbit LDL; 5 x 10^-6 M): 6.4%
CN(CCCOc1ccc2c(c1)OCO2)CCCN1C(=O)CSC1c1cc(C(C)(C)C)c(O)c(C(C)(C)C)c1 (centres unmarked) [Compound 17]		0.028 µM		Percent (%) of Control (rabbit LDL; 5 x 10^-6 M): 3.9%
CN(CCCN1C(=O)CSC1c1cc(C(C)(C)C)c(O)c(C(C)(C)C)c1)CCOc1ccc2c(c1)OCO2 (single isomer, unassigned; (+)) [Compound 70, (+)-2-(3,5-Di-tert-butyl-4-hydroxyphenyl)-3-[3-[N-methyl-N-[2-(3,4-methylenedioxyphenoxy)ethyl]amino]propyl]-1,3-thiazolidin-4-one]	0.3 µM			minimal effective concentration ([2]; Rattus norvegicus, Ventricular myocyte): 0.32 µM; Percent (%) of Control (rabbit LDL; 5 x 10^-6 M, 5 µM): 5.1%
CN(CCCCCN1C(=O)CSC1c1cc(C(C)(C)C)c(O)c(C(C)(C)C)c1)CCOc1ccc2c(c1)OCO2 (centres unmarked) [Compound 9]		0.028 µM	++	Percent (%) of Control (rabbit LDL; 5 x 10^-6 M): 5.9%
CC1SC(c2cc(C(C)(C)C)c(O)c(C(C)(C)C)c2)N(CCCN(C)CCOc2ccc3c(c2)OCO3)C1=O (stereo not drawn) [Compound 72, 2,5-Trans-2-(3,5-di-tert-butyl-4-hydroxyphenyl)-3-[3-[N-methyl-[2-(3,4-methylenedioxyphenoxy)ethyl]amino]propyl]-5-methyl-1,3-thiazolidin-4-one]		0.098 µM		
COc1c(C(C)(C)C)cc(C2SCC(=O)N2CCCN(C)CCOc2ccc3c(c2)OCO3)cc1C(C)(C)C (centres unmarked) [Compound 11]		0.021 µM		
CN(CCCCN1C(=O)CSC1c1cc(C(C)(C)C)c(O)c(C(C)(C)C)c1)CCOc1ccc2c(c1)OCO2 (centres unmarked) [Compound 8]		0.17 µM	++	
